Data on 19 molecules can be found in US20100056508A1, “AMINE DERIVATIVES AND THEIR USE IN BETA-2-ADRENORECEPTOR MEDIATED DISEASES” (ASTRAZENECA AB, priority 2006, published 2010).

Counter-ions that a name gives are not always drawn.

This test addresses T1, recombinant human α1D receptor (Homo sapiens, UniProt P25100).
T1 construct: expressed in transfected cells; host or cells: human embryonic kidney 293 cells (HEK93 [sic]), membranes
T1 sequence (P25100 1-572): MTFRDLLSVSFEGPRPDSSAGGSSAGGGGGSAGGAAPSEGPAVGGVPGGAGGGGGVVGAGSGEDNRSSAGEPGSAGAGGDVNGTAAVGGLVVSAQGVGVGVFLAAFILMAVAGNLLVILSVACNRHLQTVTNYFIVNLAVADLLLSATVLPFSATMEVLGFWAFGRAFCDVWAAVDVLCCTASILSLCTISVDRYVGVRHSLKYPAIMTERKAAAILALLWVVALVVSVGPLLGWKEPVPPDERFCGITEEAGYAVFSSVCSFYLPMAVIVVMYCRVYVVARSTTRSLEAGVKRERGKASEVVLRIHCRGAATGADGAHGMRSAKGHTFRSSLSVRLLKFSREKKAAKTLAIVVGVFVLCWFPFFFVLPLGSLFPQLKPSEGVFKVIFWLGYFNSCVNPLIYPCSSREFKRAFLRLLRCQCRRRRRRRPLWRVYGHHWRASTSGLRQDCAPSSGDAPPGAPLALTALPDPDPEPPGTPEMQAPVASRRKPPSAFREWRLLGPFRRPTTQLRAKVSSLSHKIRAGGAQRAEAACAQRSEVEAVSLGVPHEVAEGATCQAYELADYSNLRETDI
In words: Adrenergic α1D selectivity assay, [3H]-prazosin binding to membranes. To be noted: inhibition of [3H]-prazosin binding, HEK cell membranes, read-out: α1 bind pIC50 (converted). In short, it runs like this:
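Competition binding on HEK293 membranes with recombinant human α1D receptor, 0.3 nM [3H]-prazosin, 50 mM HEPES/1 mM EDTA pH 7.4, 2 h at room temperature; filtration and scintillation counting. Non-specific binding defined with 10 μM BMY7378. pIC50 from four-parameter logistic fit of specific-binding inhibition.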
Turning to `CCCC[C@@H](C)N(CCNCCc1ccc(O)c2c1OCC(=O)N2)C(=O)CCNCCc1cc(F)ccc1C` [Example 57, (R)-3-(5-Fluoro-2-methylphenethylamino)-N-(hexan-2-yl)-N-(2-(2-(5-hydroxy-3-oxo-3,4-dihydro-2H-benzo[b][1,4]oxazin-8-yl)ethylamino)ethyl)propanamide bis(trifluoroacetate)], the IC50 is 100 nM.
Next, `CC[C@@H](C)N(CCNCCc1ccc(O)c2c1OCC(=O)N2)C(=O)CCNCCc1ccc(Cl)c(Cl)c1` [Example 58, (R)—N-sec-Butyl-3-(3,4-dichlorophenethylamino)-N-(2-(2-(5-hydroxy-3-oxo-3,4-dihydro-2H-benzo[b][1,4]oxazin-8-yl)ethylamino)ethyl)propanamide dihydrochloride]: 100 nM.
Next, `CC(C)[C@@H](C)N(CCNCCc1ccc(O)c2c1OCC(=O)N2)C(=O)CCNCCc1ccc(Cl)c(Cl)c1` [Example 59, (R)-3-(3,4-Dichlorophenethylamino)-N-(2-(2-(5-hydroxy-3-oxo-3,4-dihydro-2H-benzo[b][1,4]oxazin-8-yl)ethylamino)ethyl)-N-(3-methylbutan-2-yl)propanamide dihydrochloride]: 200 nM; `C[C@H](C1CCCCC1)N(CCNCCc1ccc(O)c2c1OCC(=O)N2)C(=O)CCNCCc1ccccc1` [Example 61, (R)—N-(1-Cyclohexylethyl)-N-(2-(2-(5-hydroxy-3-oxo-3,4-dihydro-2H-benzo[b][1,4]oxazin-8-yl)ethylamino)ethyl)-3-(phenethylamino)propanamide bis(trifluoroacetate)]: 20 nM.
Turning to `Cc1cc(CCNCCC(=O)N(CCNCCc2ccc(O)c3c2OCC(=O)N3)C2CCCCCC2)ccc1F` [Example 62, N-Cycloheptyl-3-(4-fluoro-3-methylphenethylamino)-N-(2-(2-(5-hydroxy-3-oxo-3,4-dihydro-2H-benzo[b][1,4]oxazin-8-yl)ethylamino)ethyl)propanamide bis(trifluoroacetate)], the IC50 is 39.8 nM.
For the molecule `O=C1COc2c(CCNCCN(C(=O)CCNCCc3ccc(Cl)cc3)C3CCCCCC3)ccc(O)c2N1` [Example 63, 3-(4-Chlorophenethylamino)-N-cycloheptyl-N-(2-(2-(5-hydroxy-3-oxo-3,4-dihydro-2H-benzo[b][1,4]oxazin-8-yl)ethylamino)ethyl)propanamide bis(trifluoroacetate)], the IC50 was 100 nM.
Under `O=C1COc2c(CCNCCN(C(=O)CCNCCc3cc(F)ccc3F)C3CCCCCC3)ccc(O)c2N1` [Example 64, N-Cycloheptyl-3-(2,5-difluorophenethylamino)-N-(2-(2-(5-hydroxy-3-oxo-3,4-dihydro-2H-benzo[b][1,4]oxazin-8-yl)ethylamino)ethyl)propanamide bis(trifluoroacetate)] stands 63.1 nM; under `O=C1COc2c(CCNCCN(C(=O)CCNCCc3cc(F)cc(F)c3)C3CCCCCC3)ccc(O)c2N1` [Example 65, N-Cycloheptyl-3-(3,5-difluorophenethylamino)-N-(2-(2-(5-hydroxy-3-oxo-3,4-dihydro-2H-benzo[b][1,4]oxazin-8-yl)ethylamino)ethyl)propanamide bis(trifluoroacetate)], 398 nM; under `O=C1COc2c(CCNCCN(C(=O)CCNCCc3cc(F)cc(Cl)c3)C3CCCCCC3)ccc(O)c2N1` [Example 66, 3-(3-Chloro-5-fluorophenethylamino)-N-cycloheptyl-N-(2-(2-(5-hydroxy-3-oxo-3,4-dihydro-2H-benzo[b][1,4]oxazin-8-yl)ethylamino)ethyl)propanamide bis(trifluoroacetate)], 398 nM.
Under `O=C1COc2c(CCNCCN(C(=O)CCNCCc3ccc(F)c(F)c3)C3CCCCCC3)ccc(O)c2N1` [Example 67, N-Cycloheptyl-3-(3,4-difluorophenethylamino)-N-(2-(2-(5-hydroxy-3-oxo-3,4-dihydro-2H-benzo[b][1,4]oxazin-8-yl)ethylamino)ethyl)propanamide bis(trifluoroacetate)] stands 200 nM; under `O=C1COc2c(CCNCCN(C(=O)CCNCCc3cccc(Cl)c3)C3CCCCCC3)ccc(O)c2N1` [Example 68, 3-(3-Chlorophenethylamino)-N-cycloheptyl-N-(2-(2-(5-hydroxy-3-oxo-3,4-dihydro-2H-benzo[b][1,4]oxazin-8-yl)ethylamino)ethyl)propanamide bis(trifluoroacetate)], 158 nM; under `O=C1COc2c(CCNCCN(C(=O)CCNCCc3cccc(F)c3)C3CCCCCC3)ccc(O)c2N1` [Example 69, N-Cycloheptyl-3-(3-fluorophenethylamino)-N-(2-(2-(5-hydroxy-3-oxo-3,4-dihydro-2H-benzo[b][1,4]oxazin-8-yl)ethylamino)ethyl)propanamide bis(trifluoroacetate)], 200 nM.
Next, `O=C1COc2c(CCNCCN(C(=O)CCOCCc3ccccc3)C3CCCCC3)ccc(O)c2N1` [Example 70, N-Cyclohexyl-N-(2-(2-(5-hydroxy-3-oxo-3,4-dihydro-2H-benzo[b][1,4]oxazin-8-yl)ethylamino)ethyl)-3-phenethoxypropanamide trifluoroacetate]: 1580 nM; `O=C1COc2c(CCNCCN(C(=O)CCOCCc3cccc(F)c3)C3CCCCC3)ccc(O)c2N1` [Example 74, N-Cyclohexyl-3-(3-fluorophenethoxy)-N-(2-(2-(5-hydroxy-3-oxo-3,4-dihydro-2H-benzo[b][1,4]oxazin-8-yl)ethylamino)ethyl)propanamide trifluoroacetate]: 794 nM.
For `O=C1COc2c(CCNCCN(C(=O)CCOCCc3ccc(F)cc3)C3CCCCC3)ccc(O)c2N1` [Example 75, N-Cyclohexyl-3-(4-fluorophenethoxy)-N-(2-(2-(5-hydroxy-3-oxo-3,4-dihydro-2H-benzo[b][1,4]oxazin-8-yl)ethylamino)ethyl)propanamide trifluoroacetate], the IC50 was 631 nM.
As for `O=C1COc2c(CCNCCN(C(=O)CCOCCc3ccccc3F)C3CCCCC3)ccc(O)c2N1` [Example 76, N-Cyclohexyl-3-(2-fluorophenethoxy)-N-(2-(2-(5-hydroxy-3-oxo-3,4-dihydro-2H-benzo[b][1,4]oxazin-8-yl)ethylamino)ethyl)propanamide trifluoroacetate], the IC50 is 1000 nM.
Under `O=C1COc2c(CCNCCN(C(=O)CCOCCc3cccc(Cl)c3)C3CCCCC3)ccc(O)c2N1` [Example 77, 3-(3-Chlorophenethoxy)-N-cyclohexyl-N-(2-(2-(5-hydroxy-3-oxo-3,4-dihydro-2H-benzo[b][1,4]oxazin-8-yl)ethylamino)ethyl)propanamide trifluoroacetate] stands 794 nM; under `CC[C@@H](C)N(CCNCCc1ccc(O)c2[nH]c(=O)ccc12)C(=O)CCOCCc1ccccc1.Cl` [Example 79, (R)—N-sec-Butyl-N-(2-(2-(8-hydroxy-2-oxo-1,2-dihydroquinolin-5-yl)ethylamino)ethyl)-3-phenethoxypropanamide hydrochloride], 631 nM.
In the case of `CC(C)[C@@H](C)N(CCNCCc1ccc(O)c2[nH]c(=O)ccc12)C(=O)CCOCCc1ccccc1.Cl` [Example 80, (R)—N-(2-(2-(8-Hydroxy-2-oxo-1,2-dihydroquinolin-5-yl)ethylamino)ethyl)-N-(3-methylbutan-2-yl)-3-phenethoxypropanamide hydrochloride], the IC50 was 501 nM.
